# Test results: PMC7156724, “Potent BRD4 inhibitor suppresses cancer cell-macrophage interaction” (Nature Communications, 2020)
# Several values for one entry are separate records, joined by “and”; a condition that tells them apart may be missing. Identical values can stand only once.
# Assays:
# HIF1A mRNA = test: RT-qPCR of HIF1A in A375 or A2780 cells; assay type: cell-based, human
# Description: Fig. 7 NHWD-870 inhibited CSF1 expression through suppressing BRD4 and HIF1α in tumor cells. a, b Representative western blot analysis of control (Ctrl) and BRD4 knockout (KO) A375 and A2780 cells exposed to 20% or 1% O2 for 24 hours. Selected from three independent experiments. c, d Representative western blot analysis of A375 and A2780 cells treated with DMSO or 25 nM NHWD-870 and exposed to 20% or 1% O2 for 24 h. Selected from three independent experiments. e Relative HIF1 luciferase reporter activity in control (Ctrl), BRD4 knockout (KO), or NHWD-870 treated A375 and A2780 cells exposed to 20% or 1% O2 for 24 h. Data are presented as mean ± SEM from three independent experiments. f RT-qPCR analyses of CSF1 in control (Ctrl), BRD4 knockout (KO), or NHWD-870 treated A375 and A2780 cells exposed to 20% or 1% O2 for 24 hours. Data are presented as mean ± SEM from three independent experiments. g RT-qPCR analyses of HIF1A in A375 or A2780 cells treated with 15 nM NHWD-870 or DMSO control for 24 h. Data are presented as mean ± SEM from three independent experiments. h Genome browser view of BRD4 ChIP-seq peaks on the HIF1A promoter. […] NHWD-870 inhibits the proliferation and survival of TAMs partly by inhibiting BRD4 activity, HIF1α expression, and CSF1 secretion by tumor cells, and downregulating CSF1R mediated ERK and PI3K/AKT signaling in TAMs. p values were calculated using two-tailed, unpaired t tests in this figure. *p < 0.05; **p < 0.01; ***p < 0.001. […]
# Total RNA was extracted with RNeasy plus mini kit (Qiagen), and then cDNA was synthesized by iScript™ cDNA Synthesis Kit (Bio-Rad). qPCR was performed using a CFX96 Real-time PCR Instrument (BioRad). Data were collected using CFX Manager version 3.1.1517.823 and analyzed using Microsoft Excel 2010. Relative expression levels were determined by normalization to human GAPDH using the ∆∆Ct method. […]
# A2780 tumors = test: Orthotopic OC model with CSF1 overexpressing A2780 cells, NHWD-870 treatment; assay type: in vivo, mouse; set-up: Tumor weight (Fig.6k) / Ascitic fluid (Fig.6l): unit not given here
# Description: Fig. 6 CSF1/CSF1R signaling is critical for the tumor inhibitory effects of NHWD-870 and CSF1 induced ovarian cancer growth depends on macrophages. a Number of TAMs after treatment with the indicated concentration of CSF1 for 48 h. Data are presented as mean ± SEM from three independent experiments. b–d Schematics of the experiments (b). A2780 cells (pre-treated with DMSO or 100 nM NHWD-870 for 48 h) were seeded into the top chamber (transwell size: 0.4 μm), and TAMs (Mac, 40,000 cells per 24-well) in medium with PBS or 10 ng/ml CSF1 (c), or 50 ng/ml IgG or anti-CSF1R antibodies (d), were seeded into the bottom chamber. Shown are quantification of TAMs (c, d). Data are presented as mean ± SEM from three independent experiments. e Representative western blot analysis of A2780 cells stably transfected with CSF1 or empty vector (EV). Selected from three independent experiments. f Schematics of the animal experiments using an orthotopic mouse OC model, established by intraperitoneally injecting 1 × 10^6 (g–j) or 2 × 10^6 (k–m) human A2780 cells overexpressing CSF1 or control into female recipient nude mice. Mice were then treated with/without liposomal clodronate (LC) for 45 days (g–j) or treated with/without NHWD-870 (PO, QD, 3 mg/kg) for 37 days (k–m). g Increased mouse body weight was measured at the indicated time points (day 0-45 after LC treatment). h–j Net tumor weight (h), ascitic fluid volumes (i) tumor implantations in peritoneum, omentum and pevic cavity (j) were measured at day 45 from LC treatment. k–m Net tumor weight (k), ascitic fluid volumes (l) tumor implantations in peritoneum, omentum and pevic cavity (m) were measured at day 37 after NHWD-870 treatment. For g–m, data are presented as mean ± SEM from five different mice. p values were calculated using two-tailed, unpaired t tests in this figure. n.s, not significant; *p < 0.05; **p < 0.01; and ***p < 0.001. Source data are provided as a Source Data file.
# 4–6 weeks old female BALB/c nude mice were used for most experiments, with the exception of 6–8 weeks old female C57BL/6 mice were used for B16F10 experiments, and 6–8 weeks old male BALB/c nude mice and SD rats were used for pharmacokinetic experiments. All animals were purchased from Shanghai SIPPR-Bk Lab Animal Co., Ltd. All animals were housed under a regimen of 12 h light/12 h dark cycles and specific pathogen-free conditions. 5×10^6 NCI-H526, ES-2, MDA-MB231, A2780, A375, B16F10, and TMD-8 cells (0.1 ml) were injected subcutaneously into female nude mice. The melanoma patient-derived xenograft model was derived from a human melanoma sample (BRAF, NARS and NF1 wild type, and p53 mutant) removed from a patient in Xiangya Hospital. Surgically removed tumor fragments were implanted subcutaneously into female NSG mice. When the tumors grew to ~1000 mm^3, they were harvested and cryopreserved or immediately re-implanted for expansion or experiments. Mouse body weight and tumor sizes were measured every 3 days. Once the tumors grew to 150–200 mm^3, mice were treated with the compounds as described in the Figures. 1 × 10^6 A2780 cells (1 ml) were injected into the abdominal cavity of nude mice. Ascitic volume and tumor weight were measured by an electronic balance. All the procedures were evaluated and approved by the Institutional Animal Care and Use Committee of Central South University and Yale University.
# CSF1 mRNA = test: RT-qPCR of CSF1 mRNA in mouse tumor cells (ID8, B16); assay type: cell-based; conditions: ID8, 50 nM, 48 h
# [1] = CSF-1 overexpressing A2780 cells
smiles,measurement,setting,value
Cc1nnn(C)c1-c1cnc2c3c4cnn(C)c4ccc3n([C@H](c3ccccc3)C3CCOCC3)c2c1 [NHWD-870],HIF1A mRNA levels,"HIF1A mRNA; 15 nM, 24 h, A375 or A2780 cells",decreased HIF1A mRNA levels
same,"HIF1A mRNA, relative to DMSO (Fig.7g)",HIF1A mRNA; A375,0.3638 and 0.3259 and 0.3497
same,"HIF1A mRNA, relative to DMSO (Fig.7g)",HIF1A mRNA; A2780,0.269 and 0.2453 and 0.2176
same,Ascitic fluid (Fig.6l),A2780 tumors; [1],2.5 and 3.8 and 4.1 and 3.5 and 2.1
same,"Tumor nodules, Omentum (Fig.6m)",A2780 tumors; [1],8 and 13 and 10 and 16 and 12
same,"Tumor nodules, Pelvic (Fig.6m)",A2780 tumors; [1],45 and 54 and 36 and 64 and 51
same,Tumor weight (Fig.6k),A2780 tumors; [1],375 and 345 and 367 and 276 and 305
same,tumor inhibitory effects on CSF1 overexpressing A2780 tumors,"A2780 tumors; PO, QD, 3 mg/kg, 37 days",strongly mitigated the tumor inhibitory effects
same,relative CSF1 mRNA level,CSF1 mRNA,0.0037 and 0.00425 and 0.0051
